# According to US20200147058A1, “KRAS INHIBITOR FOR USE IN TREATING CANCER” (Friedrich-Alexander-Universitat Erlangen-Numberg, priority 2016, published 2020):
# How the values were obtained:
# Assay type in all cases: cell-based, human
# Mel Im cells [1] = assay: FACS analysis of apoptosis (Annexin / propidium iodide)
# Excerpt: (§1) FIGS. 4A through 4H depict that small Molecule KRAS Inhibition Reduces Proliferation and Induces Apoptosis in Melanoma. FIGS. 4A and 4B show proliferation (slope of cell index) of Mel Juso (FIG. 4A) and Mel Im (FIG. 4B) cells treated with DMSO and different concentrations of the KRAS small molecule inhibitor Deltarasin (DR). The cell index as dimensionless parameter for cell proliferative ability was used to determine the half maximal inhibitory concentration (IC50, small graphs) of DR. […] FIG. 4D illustrates exemplary images of different melanoma cell lines (Mel Im, Mel Juso and Mel Ei) treated with 5 μM DR or 5 μM DMSO, respectively, for 24 hours. FIGS. 4E and 4F show images of fibroblast cell lines derived from two different donors (F1, F2) and melanocytes (NHEM) treated DR (20 μM, 48 hours) or DMSO (FIG. 4E), and lactate dehydrogenase (LDH) quantification (FIG. 4F) in cell supernatants (optic density, OD) of NHEM after treatment with low dose DMSO, DR (5 μM), and DR (10 μM), respectively.
# (§2) FIGS. 5A through 5D show time-dependent measurement of colony diameters (exemplary data in top panels) in three-dimensional, anchorage-independent “colony-forming” assays (FIGS. 5A and 5B: Mel Im, FIGS. 5C and 5D: Mel Juso). Exemplary Images (middle) and corresponding quantification of colony diameters (bottom panels, summarized data of n=3 experiments at day 19 after seeding) are also depicted. Treatments were performed in four different groups (10 μM DMSO, 5 μM Deltarasin=DR, M PLX-4032=PLX (vemurafenib), or combination of 10 μM PLX+[…]). Effects on i) colony formation (FIGS. 5A and 5C, treatment at day 1) and ii) proliferation of pre-formed colonies (FIGS. 5B and 5D, treatment at day 7 and 13) were analyzed. […] FIG. 5F show images of PLX-primary resistant Mel Juso cells treated with DMSO, DR (5 μM), high dose PLX (20 μM) and a combination of 5 μM DR+10 μM PLX for 24 hours. […] Cells were treated for 5 hours with DMSO, 5 μM Deltarasin (DR), 10 μM PLX, or a combination of 10 μM PLX and 5 μM DR. According to exemplary images for Annexin and propidium iodide (PI) staining are depicted for Mel Im. (FIG. 5H) Mel Im and Mel Juso were transfected with control si-RNA (si-CTR) or with si-KRAS (si-KR). Two subgroups (blue and red) were additionally treated with 10 μM PLX (Vemurafenib) for 24 hours, with subsequent flow cytometric quantification of tumor cell apoptosis according to FIG. 5G. Exemplary images for Annexin and propidium iodide (PI) staining are depicted for Mel Im.
# Mel Juso cells [2] = assay: as above
# Excerpt: as §1, §2
# Htz19 melanoma cells = assay: FACS analysis of apoptosis; settings: PLX 24 hours, alone or combined with RNAi-mediated KRAS knockdown
# Mel Im cells [3] = assay: long-term treatment, emergence of surviving tumor cells and drug resistance; settings: 21 days, PLX increasing doses up to 20 μM, or 10 μM PLX + 5 μM DR
# Excerpt: as §1
# FIGS. 6A through 6H depict that KRASi Prevents Emergence of Resistance and KRAS Expression is Regulated Dynamically in Acquired Resistance to BRAFi. […] Asterisks indicate significant differences (p<0.05) as compared to according control (0 μM PLX). […] Densitometric values (DM) are also shown, representing relative quantifications. […]
# Mel Juso cells [4] = assay: three-dimensional, anchorage-independent colony-forming assay; settings: Mel Juso (BRAFi primary resistant); DR 5 μM, PLX 10 μM, alone or combined
# Excerpt: FIGS. 5A through 5D show time-dependent measurement of colony diameters (exemplary data in top panels) in three-dimensional, anchorage-independent “colony-forming” assays (FIGS. 5A and 5B: Mel Im, FIGS. 5C and 5D: Mel Juso). Exemplary Images (middle) and corresponding quantification of colony diameters (bottom panels, summarized data of n=3 experiments at day 19 after seeding) are also depicted. […] Effects on i) colony formation (FIGS. 5A and 5C, treatment at day 1) and ii) proliferation of pre-formed colonies (FIGS. 5B and 5D, treatment at day 7 and 13) were analyzed. […] Cells were treated for 5 hours with DMSO, 5 μM Deltarasin (DR), 10 μM PLX, or a combination of 10 μM PLX and 5 μM DR. […] (FIG. 5H) Mel Im and Mel Juso were transfected with control si-RNA (si-CTR) or with si-KRAS (si-KR). Two subgroups (blue and red) were additionally treated with 10 μM PLX (Vemurafenib) for 24 hours, with subsequent flow cytometric quantification of tumor cell apoptosis according to FIG. 5G.
# Mel Juso cells [5] = assay: ERK-activation in BRAFi primary resistant cells; settings: PLX
# SkMel28-wt = assay: cell proliferation (slope of cell index); settings: 10 μM PLX vs DMSO
# Description: (§3) FIGS. 6A through 6H depict that KRASi Prevents Emergence of Resistance and KRAS Expression is Regulated Dynamically in Acquired Resistance to BRAFi. […] Asterisks indicate significant differences (p<0.05) as compared to according control (0 μM PLX). FIGS. 6E and 6F are exemplary Western blot images (FIG. 6E) depicting immunostaining of AKT, pAKT, ERK, pERK, and KRAS. Densitometric values (DM) are also shown, representing relative quantifications. Resistant cell lines 451Lu-R and SkMel28-R were treated with 0, 5, or 10 μM PLX for 8 hours, and according summarized quantification of KRAS protein expression (n=3, FIG. 6F).
# 451Lu-wt = assay: cell proliferation (slope of cell index); settings: 10 μM PLX vs DMSO
# [6] = tested on: resistant cell clones (SkMel28-R, 451Lu-R); assay: real-time cell proliferation of BRAFi-resistant melanoma cells; settings: both resistant cell clones; 10 μM PLX vs DMSO
# Description: as §3
# FIGS. 7A through 7I present KRAS Inhibition Re-sensitizes BRAF Inhibitor Resistant Cells for Inhibition of Proliferation and Induction of Apoptosis. […] show real-time cell proliferation (exemplary proliferation curve depicted in FIG. 6A, summarized slopes of proliferation curves depicted in FIG. 6B) of PLX-resistant cells treated with si-KRAS (KR) or control si-RNA (CTR), respectively, in combination with 5 or 10 μM PLX. FIGS. 7C and 7D show real-time cell proliferation (exemplary proliferation curve depicted in […], summarized slopes of proliferation curves depicted in FIG. 7D) of PLX-resistant cells treated with Deltarasin (DR) or DMSO, respectively, in combination with 5 or 10 μM PLX, according to FIGS. 7A and 7B. […]
# [7] = tested on: KRAS mRNA in SkMel28-R and 451Lu-R cells; assay: qRT-PCR of KRAS mRNA expression after PLX treatment; settings: resistant and some non-resistant melanoma cell clones; 24-hour and 48-hour PLX treatment
# Description: as §3
# [8] = tested on: resistant cell lines 451Lu-R and SkMel28-R; assay: Western blot of AKT, pAKT, ERK, pERK and KRAS
# Description: as §3
# After 48 hours of transfection with either control si-RNA (CTR) or si-KRAS (KR), cells were treated with different concentrations of PLX (0-10 μM). Data are represented as mean±SD in FIGS. 6A-6G and as mean±SEM in FIG. 6H. Ns: non-significant. *: p<0.05.
# [9] = 10 μM PLX 24 hours, alone (si-CTR) or combined with RNAi-mediated KRAS knockdown
# [10] = 5 hours, 5 μM DR, 10 μM PLX or combination
compound,measurement,setting,value
CCCS(=O)(=O)Nc1ccc(F)c(C(=O)c2c[nH]c3ncc(-c4ccc(Cl)cc4)cc23)c1F [PLX],apoptosis (FACS),Mel Im cells [1]; [9],slightly enhanced apoptosis
same,"apoptosis (FACS), short treatment",Mel Im cells [1]; [10],insufficient to induce apoptosis
same,apoptosis (FACS),Mel Juso cells [2]; [9],did not cause apoptosis
same,"apoptosis (FACS), short treatment",Mel Juso cells [2]; [10],insufficient to induce apoptosis
same,apoptosis (FACS),Htz19 melanoma cells,slightly enhanced apoptosis
same,emergence of surviving tumor cells (acquired resistance),Mel Im cells [3],survival of a moderate proportion of tumor cells
same,three-dimensional colony formation and colony proliferation,Mel Juso cells [4],enhanced
same,ERK-activation,Mel Juso cells [5],enhanced
same,cell proliferation,SkMel28-wt,inhibited proliferation
same,cell proliferation,451Lu-wt,inhibited proliferation
same,cell proliferation,[6],enhanced
same,KRAS mRNA expression (qRT-PCR),[7],dose-dependent slight dynamic alteration
same,ERK activation (pERK),"[8]; PLX 0, 5 or 10 μM",increased ERK activation
same,activation of AKT (pAKT/AKT),[8]; PLX doses,dose-dependently increased
same,KRAS protein expression (Western blot),"[8]; eight hours, 0, 5 or 10 μM PLX",dose-dependently enhanced
